Values quoted from earlier work as cited in patent US20070104896A1, “Optical film, polarizing plate and image display device” (FUJIFILM Corporation, priority 2005, published 2007).

Conditions: pKa of a conjugated acid of the organic base; values in an aqueous solution

Compound	pKa
Cc1ccc2ccc3ccc(C)nc3c2n1 [b-5, 2,9-Dimethyl-1,10-phenanthroline]	5.9
Cc1ccnc2c1ccc1c(C)ccnc12 [b-6, 4,7-Dimethyl-1,10-phenanthroline]	5.9
Cc1ccccn1 [b-7, 2-Methylpyridine]	6.1
Cc1ccncc1 [b-8, 4-Methylpyridine]	6.1
CN(C)CCO [b-17, N,N-Dimethyl-2-aminoethanol]	9.5

Second part, the compound after the results:

pKa	Compound
6.5	CN(C)c1cccnc1 [b-9, 3-(N,N-Dimethylamino)pyridine]
7.0	Cc1cccc(C)n1 [b-10, 2,6-Dimethylpyridine]
7.6	Cc1ncc[nH]1 [b-12, 2-Methyl imidazole]
7.7	CCN1CCOCC1 [b-13, N-Ethylmorpholine]
7.8	CN1CCOCC1 [b-14, N-Methylmorpholine]
8.9	COCCNCCOC [b-15, Bis(2-methoxyethyl)amine]
9.9	CN(C)C [b-18, Trimethylamine]
